The test system of assay [1] is HAK1A-J xenograft. Put plainly: HAK1A-J xenograft models, pilot study (tumor volume). The assay is classed as in vivo, mice. The settings on record: compared with control, FIG. 19. Here is the method: Effects of LM and Compound A in HAK1A-J xenograft models were examined in a pilot study using 5 animals (mice). Anti-tumor effects of LM and Compound A were assessed following the xenograft by measuring tumor volume after the treatment by the drugs.

The test system of assay [2] is HAK1A-J xenograft. Kind of assay: HAK1A-J xenograft models (tumor volume). The assay is classed as in vivo. The settings on record: male mice; compared with control or LM treated mice; FIG. 21. Here is the method: Effects of LM and Compound A in HAK1A-J xenograft models were examined using 50 male mice 4 weeks of age. Anti-tumor effects of LM and Compound A were assessed following the xenograft by measuring tumor volume after the treatment by the drugs.

The subject of assay [3] is HAK-1B cell line (poorly differentiated HCC cell line). Put plainly: Wound healing assay, HAK-1B cell line. The assay is classed as cell-based. The settings on record: FIG. 8. Here is the method: (§1) 1. Cell seeding: A grid on the underside of the plate (60 mm) was drawn according to the paper diagram. Cells were seeded on 60 mm dish (aimed for confluent cells).
(§2) 2. Scratch wound: Using a tip (green), a scratch wound was made. The locations of the wounds were recorded by drawing on a paper. SF DMEM+trypsin aliquot was retrieved from the incubator, and the media/floating cells from the dish was aspirated. Cells were washed with DMEM+Trypsin to remove cells that have not been completely scratched away from the wound. Then the dish was filled with 4 ml of 10% FBS DMEM.
(§3) 3. Taking photographs: The marker was included on the top of the image frame so the same wound area can be kept track of. Then pictures of those wounds for the indicated time points were taken. Results were expressed as percentage of wound closure, as an index of cell migration, normalized to the initial width.
In another set of experiments, the effects of LM and Compound A on HCC cell migration were assessed using wound healing assay in HAK-1B cell line (poorly differentiated HCC cell line).

For assay [4], the system named is TCF-4J isoform dependent target genes. Kind of assay: qRT-PCR of TCF-4J responsive target genes in xenograft tumors. The assay is classed as in vivo, mice. Particulars: for mRNA expression: HAK1A-J xenograft models, legend of FIG. 22, genes not named. Here is the method:
Effects of LM and Compound A on expression of TCF-4J responsive target genes in HAK-1A xenograft tumors were assessed by measuring mRNA expression levels of TCF-4J isoform dependent target genes in xenograft tumors treated with LM, Compound A and control vehicle. The following procedures were used: Total RNA was extracted from tumors using TRIzol Reagent, and reverse transcription was performed with First Strand cDNA Synthesis Kit for RT-PCR (AMV). Quantitative real-time PCR was carried out on a Mastercycler ep realplex instrument and software, using SYBR Green PCR reagents. Relative quantification was performed using ΔΔCt method, normalizing to 18S rRNA. Dissociation curves were generated to evaluate PCR product specificity and purity.
In general terms: Real-time PCR tracks product formation cycle by cycle.

The test system of assay [5] is HAK-1B cell line (poorly differentiated HCC cell line). Kind of assay: Cell invasion assay (Matrigel-coated chamber), HAK-1B cell line. Particulars: HAK-1B (printed HAK-1AB), FIG. 4. The assay is classed as cell-based. The procedure: (§4) Focus and Hub7 cells were treated with 10 μM of LM in DMSO or DMSO as a control for 24 hrs. The cells were transferred in a migration chamber coated with Matrigel (BD Biosciences). After 16 hrs, invasive cells attached to the bottom of the membrane were stained/counted and normalized by the number of migrative cells in a corresponding non-coated migration chamber.
(§5) In another set of experiments, the effects of LM and Compound A on HCC cell migration and invasion were assessed using procedures similar to those described above, except that HAK-1B cell line (poorly differentiated HCC cell line) was employed.

The test system of assay [6] is HAK-1A cell line (well differentiated HCC cell line). Kind of assay: Wound healing assay, HAK-1A cell line. The class given is cell-based. The settings on record: FIG. 6. Here is the method:
In another set of experiments, the effects of LM and Compound A on HCC cell migration were assessed using wound healing assay in HAK-1A cell line (well differentiated HCC cell line). The following procedures were used.
as §1, §2, §3

For assay [7], the system named is HAK-1B cell line (poorly differentiated HCC cell line). Kind of assay: Cell migration assay (migration chamber), HAK-1B cell line. The class given is cell-based. The settings on record: FIG. 4. The procedure: (§6) Focus and Hub7 cells were treated with 10 μM of LM in DMSO or DMSO as a control for 24 hrs. The cells were transferred in a migration chamber (BD Biosciences). The lower chamber was filled with 10% FBS-containing medium as a chemoattractant and was separated from the upper chamber by a 8 μm pore membrane. After 16 hrs, the remaining cells in the upper chamber (non-migrated cells) were removed and the cell attached to the bottom of the membrane (migrated cells) were stained with crystal violet and counted using Stereologer (SRC) in 10 different fields of the membrane.
as §5

Assay [8] concerns HAK-1A cell line (well differentiated HCC cell line). Kind of assay: Cell migration assay (migration chamber), HAK-1A cell line. The assay is classed as cell-based. The settings on record: FIG. 3.
In assay [9] the test system is HCC cell lines Huh7, FOCUS, HAK-1A and HAK-1B. Put plainly: MTS assay (cytotoxicity). The class given is cell-based. Particulars: 24 or 72 hours; FIG. 17. Here is the method:
MTS assay was performed to evaluate the toxicity of Compound A for HCC cell lines Huh7, FOCUS, HAK-1A and HAK-1B. Compound A, at various concentrations ranging from […], was incubated with the specified cells for 24 or 72 hours.
A general note: Formazan colour is commonly taken as a measure of viable cells.

The test system of assay [10] is FOCUS cell line (poorly differentiated HCC cell line). Put plainly: Wound healing assay, FOCUS cell line. The assay is classed as cell-based. Particulars: FIG. 7. Here is the method:
as §1, §2, §3
In another set of experiments, the effects of LM and Compound A on HCC cell migration were assessed using wound healing assay in FOCUS cell line (poorly differentiated HCC cell line).

The subject of assay [11] is Focus cells (poorly differentiated HCC cell line). Kind of assay: Cell migration assay (migration chamber), Focus cell line. The class given is cell-based. The procedure:
as §6
(§7) In another set of experiments, the effects of LM and Compound A on HCC cell migration and invasion were assessed using procedures similar to those described above using FOCUS cell line (poorly differentiated HCC cell line).

Assay [12] shares this test system. Kind of assay: Cell invasion assay (Matrigel-coated chamber), Focus cell line. The assay is classed as cell-based. Here is the method:
as §4, §7

In the next assay the test system is TCF-4. Put plainly: Western blot of nuclear TCF-4 expression after LM treatment. The assay is classed as cell-based. The settings on record: 10 μM, 24 hrs; poorly-differentiated cells (Focus); normalized by lamin; FIG. 1. The procedure:
Focus and Hub7 cells were treated with 10 μM of lenalidomide (“LM”) in DMSO or DMSO as a control for 24 hrs. Nuclear and cytosolic proteins were separately extracted and the expression of TCF-4 was analyzed by western blot. Nuclear expression of both long and short isoforms of TCF-4 was qualified using ImageJ (NIH) and normalized by expression of lamin.

[13] abbreviates: xenograft tumors, ΔΔCt, normalized to 18S rRNA, FIG. 22.
Setting [14] is: another set of experiments, FOCUS, poorly differentiated, FIG. 5.

SMILES strings stand for the structures.

With `Cc1nc2cccc(N)c2c(=O)n1C1CCC(=O)NC1=O` (stereo not drawn) [Compound A, 3-(5-amino-2-methyl-4-oxo-4H-quinazolin-3-yl)-piperidine-2,6-dione], the tumor volume result in the assay with HAK1A-J xenograft [1] is “significantly reduced the volume of tumors”; in the assay on HAK1A-J xenograft [2] it was “much more significantly reduced the volume of tumors”. For the same compound, the “cell migration (wound closure)” value is recorded as “reduced cell migration” in [3], “did not affect the cell migration” in assay [6] and “reduced cell migration” in [10]. In assay [4], the mRNA expression entry is “reduction of mRNA expression”. In [4] (setting [13]), the “mRNA level of ANXA1” value is recorded as “reduced”. The “mRNA level of ASPH” value in assay [4] (setting [13]) was “reduced”. For the same compound, in assay [4] (setting [13]), the “mRNA level of CAMK2N1” value is reported as “reduced”. Also, in [4] (setting [13]), the “mRNA level of CLDN2” value is listed as “reduced”. In addition, the “mRNA level of GPR56” value in [4] (setting [13]) was “reduced”. Further, the “mRNA level of JAG1” value in assay [4] (setting [13]) is reported as “reduced”. Moreover, the cell invasion entry in assay [5] and in assay [12] (setting [14]) was “inhibited cell invasion” throughout. Moreover, the values for the cell migration entry in [7], in [8] and in assay [11] (setting [14]) were “inhibited cell migration”, “did not affect the cell migration” and “did not inhibit cell migration”, respectively. In [9], the HCC cell proliferation result is listed as “no effect on HCC cell proliferation”.
With `Nc1cccc2c1CN(C1CCC(=O)NC1=O)C2=O` (stereo not drawn) [LM, 1-oxo-2-(2,6-dioxopiperidin-3-yl)-4-aminoisoindoline, reference compound], the tumor volume entry in the assay on HAK1A-J xenograft [1] is on record as “significantly reduced the volume of tumors”; with HAK1A-J xenograft [2] it was “reduction of tumor volume was observed”. In addition, the mRNA expression entry in [4] is “reduction of mRNA expression”. In addition, the results for the “cell migration (wound closure)” value in assay [6] and in [10] were “did not affect the cell migration” and “reduced cell migration”, respectively. The cell migration result is reported as “inhibited cell migration” in assay [7]; “did not affect the cell migration” in [8]; “inhibited cell migration” in assay [11] (10 μM, 24 hrs, migrated cells counted after 16 hrs, Focus, FIG. 2); “did not inhibit cell migration” in [11] (setting [14]). For the same compound, the “TCF-4 expression, short and long forms (nuclear)” value in the assay with TCF-4 is reported as “decreased”. Moreover, the cell invasion entry in [12] (10 μM, 24 hrs, invasive cells after 16 hrs, normalized by migrative cells, Focus, FIG. 2) is given as “inhibited cell invasion”; in [12] (setting [14]), “inhibited cell invasion”.
